# Test results from PMC11784221, “Platelet factor 4-derived C15 peptide broadly inhibits enteroviruses by disrupting viral attachment” (Journal of Virology, 2025).
# Where no end group is shown, it is not given here.
# B1: PF4-His: Platelet factor 4 with His tag at the N-terminus, expressed in E. coli and purified (protein)
# chain: EAEEDGDLQCLCVKTTSQVRPRHITSLEVIKAGPHCPTAQLIATLKNGRKICLDLQAPLYKKIIKKLLES
# modifications: left off: Myc, N-terminal, kept
# notes: Platelet factor 4 with His tag at the N-terminus, expressed in E. coli and purified
# B2: C15 peptide (C-terminal 15 amino acids of PF4) (peptide)
# peptide: QAPLYKKIIKKLLES
# Tests used:
# EV71 = settings: read-out: EC50 for EV71; RD cells, 48 h, intracellular VP1 mRNA by RT-qPCR vs GAPDH, three independent experiments, four-parameter fit
# RD cells = settings: 48 h treatment, CCK-8, absorbance 450 nm, n = 3
# EVD68 [1] = settings: read-out: EC50 for EVD68; RD cells, 48 h, intracellular VP1 mRNA by RT-qPCR vs GAPDH, three independent experiments, four-parameter fit
# [2] = C15 alone in neonatal mice without CA6 infection (toxicity); format: in vivo, ICR mice
# Experimental: To investigate the anti-viral efficacy of C15 against CA6 in vivo, we established a lethal infection model using 1-day-old ICR mice. The mice were infected with CA6 at a concentration of 10^7 TCID50 and then treated with two different concentrations of C15 (1 and 5 mg/kg). The mice were monitored over a period of 7 days to assess various indicators (Fig. 7A). The mice in the control group, which received Dulbecco’s Modified Eagle Medium (DMEM) alone, began to succumb to the infection on day 4, with all mice dying by day 6. On day 6, the average clinical score of the mice in the control group was 5. […] Treatment with 1 mg/kg C15 improved survival rates by 60%, while 5 mg/kg C15 provided complete protection, achieving a 100% survival rate (Fig. 7D).
# ICR pregnant specific pathogen-free mice were purchased from Beijing Vital River Laboratory. Pregnant mice gave birth approximately 5 days after arrival at the laboratory. One day-old ICR neonatal mice were used to establish the CA6 infection mouse model. The CA6 virus, at a concentration of 10^7 TCID50/mL, was mixed with varying concentrations of C15 (1 and 5 mg/kg) and intracranially injected into the 1 day-old neonatal mice (10 µL per mouse). Five experimental groups were designed, and observations of various indicators were conducted over the subsequent 7 days, as well as samples collected for analysis. […]
# CA6 [3] = settings: read-out: EC50 for CA6; RD cells, 48 h, intracellular VP1 mRNA by RT-qPCR vs GAPDH, three independent experiments, four-parameter fit
# CA16 = settings: read-out: EC50 for CA16; RD cells, 48 h, intracellular VP1 mRNA by RT-qPCR vs GAPDH, three independent experiments, four-parameter fit
# EVD68 [4] = test: Purified PF4-His added to cells infected with EVD68; format: cell-based, enterovirus D68; settings: increasing doses of purified PF4-His, 48 h, Western blot, RT-qPCR, TCID50
# Experimental: (§1) (A and B) HEK-293T cells transfected with cDNA-PF4-Myc or the VR1012 expression vector serving as a control. […] (C and D) Viral loads in the supernatant were evaluated by measuring VP1 gene mRNA levels using reverse transcription quantitative PCR (RT-qPCR). (E and H) PF4-His proteins expressed in Escherichia coli were added to the cell supernatant at the indicated concentration, and the cells were simultaneously infected with CA6 or EVD68. Cell lysates and supernatants (concentrated 100-fold) were collected at 48 h. Western blot was performed to detect the viral VP1 protein in the cells and supernatant, with tubulin serving as a loading control. (F and I) Intracellular mRNA levels of VP1 were determined by RT-qPCR, using GAPDH as a control. (G and J) 50% tissue culture infective dose (TCID50) assays were performed using supernatants collected from infected rhabdomyosarcoma cells at 48 h, containing various concentrations of PF4-His.
# (§2) PF4 is a secreted protein. To further assess its anti-viral potential, PF4 proteins were expressed and purified from Escherichia coli. […]
# (§3) The cDNA of PF4-His with His tag at the N-terminus was synthesized and inserted into PEXs-DH by Comate Bioscience Company and expressed in E. coli BL21-derived cells. […] The […] of the resulting proteins was determined through BCA Protein Assay Kits (Epizyme, #ZJ102L) analysis.
# CA6 [5] = test: Purified PF4-His added to cells infected with CA6; format: cell-based, coxsackievirus A6; settings: increasing doses of purified PF4-His, 48 h, Western blot, RT-qPCR, TCID50
# Experimental: as §1, §2, §3
# [6] = biological target: Coxsackievirus A6 (CA6) virion, strain changchun046/CHN/2013 (coxsackievirus A6)
# [7] = biological target: Enterovirus D68 (EVD68) virion, strain US/KY/14-18953 (enterovirus D68)
molecule,measurement,setting,value
QAPLYKKIIKKLLES [C15],EC50,EV71,5.36 nM
same,50% cytotoxic concentration,RD cells,> 100 µM
same,EC50,EVD68 [1],5.41 nM
same,"Toxicity in neonatal mice (clinical scores, body weight, survival rates versus DMEM control)","[2]; 5 mg/kg C15 without CA6 infection, intracranial, 1-day-old ICR mice",no toxicity
same,"VITT-related symptoms (weight loss, nosebleeds, gum bleeding, gastrointestinal bleeding)",[2]; injection of C15 alone in mice,did not result in VITT-related symptoms
same,EC50,CA6 [3],3.12 nM
same,EC50,CA16,10 nM
B1,VP1 protein and mRNA levels of EVD68 and viral titer in supernatant,EVD68 [4],gradually decreased
same,VP1 protein and mRNA levels of CA6 and viral titer in supernatant,CA6 [5],gradually decreased
B2,"EC50 of inhibition of CA6 replication in RD cells (intracellular VP1 mRNA by RT-qPCR, 48 h)",[6],3.12 nM
same,"EC50 of inhibition of EVD68 replication in RD cells (intracellular VP1 mRNA by RT-qPCR, 48 h)",[7],5.41 nM
